Assay results as given in article PMC8286840, “Identifying SARS-CoV-2 antiviral compounds by screening for small molecule inhibitors of Nsp3 papain-like protease” (Biochemical Journal, 2021).
Counter-ions that a name gives are not always drawn. Like-named read-outs stand apart in the source and are kept apart here.

Assays:
[1] = target: T1, SARS-CoV-2 PLpro (nsp3 1564–1878) (Severe acute respiratory syndrome coronavirus 2, UniProt P0DTD1); test: biochemical; design: FRET-quenched peptide (Pro3) cleavage by PLpro, 10 min pre-incubation, slope over 20 min, normalised to no-compound control; details: low concentration screen, read-out: % of control remaining
[2] = target: T1, SARS-CoV-2 PLpro (nsp3 1564–1878); test: biochemical; design: FRET-quenched peptide (Pro3) cleavage by PLpro, 10 min pre-incubation, slope over 20 min, normalised to no-compound control; details: high concentration screen, read-out: % of control remaining

## CC(C)Cc1ccc(C(C)C(=O)O)cc1 (centres unmarked) [Ibuprofen]
[1]; Well no.=1901
  remaining activity at 1.25 µM: 95.1%
[2]; Well no.=1901
  remaining activity at 3.75 µM: 97%

## CC(C)Cc1ccc(C(C)C(=O)NO)cc1 (centres unmarked) [Ibuproxam]
[1]; Well no.=4091
  remaining activity at 1.25 µM: 95%
[2]; Well no.=4091
  remaining activity at 3.75 µM: 94.9%

## CC(C)(N)C(=O)N[C@H](COCc1ccccc1)C(=O)N1CCC2(CC1)CN(S(C)(=O)=O)c1ccccc12 [Ibutamoren (Mesylate)]
[1]; Well no.=6186
  remaining activity at 1.25 µM: 98.5%
[2]; Well no.=6186
  remaining activity at 3.75 µM: 94.2%

## CCCCCCCN(CC)CCCC(O)c1ccc(NS(C)(=O)=O)cc1 (centres unmarked) [Ibutilide fumarate]
[1]; Well no.=5096
  remaining activity at 1.25 µM: 93.1%
[2]; Well no.=5096
  remaining activity at 3.75 µM: 102%

## COc1ccc(-c2oc3c(CC=C(C)C)c(O[C@@H]4O[C@H](CO)[C@@H](O)[C@H](O)[C@H]4O)cc(O)c3c(=O)c2O[C@@H]2O[C@@H](C)[C@H](O)[C@@H](O)[C@H]2O)cc1 [Icariin]
[1]; Well no.=5200
  remaining activity at 1.25 µM: 99.9%
[2]; Well no.=5200
  remaining activity at 3.75 µM: 100%

## O=C1NC(c2cccc([N+](=O)[O-])c2)=CCN1c1ccccc1O [Icilin]
[1]; Well no.=5682
  remaining activity at 1.25 µM: 83.3%
[2]; Well no.=5682
  remaining activity at 3.75 µM: 83.5%

## C#Cc1cccc(Nc2ncnc3cc4c(cc23)OCCOCCOCCO4)c1 [Icotinib]
[1]; Well no.=5229
  remaining activity at 1.25 µM: 92.9%
[2]; Well no.=5229
  remaining activity at 3.75 µM: 88.7%

## CC(=O)[C@]1(O)Cc2c(O)c3c(c(O)c2[C@@H](O[C@H]2C[C@H](N)[C@H](O)[C@H](C)O2)C1)C(=O)c1ccccc1C3=O [Idarubicin]
[1]; Well no.=574
  remaining activity at 1.25 µM: 103%
[1]; Well no.=1613
  remaining activity at 1.25 µM: 102%
[2]; Well no.=574
  remaining activity at 3.75 µM: 102%
[2]; Well no.=1613
  remaining activity at 3.75 µM: 103%

## COc1cc(C(=O)O)ccc1NC(=O)[C@@H]1N[C@@H](CC(C)(C)C)[C@](C#N)(c2ccc(Cl)cc2F)[C@H]1c1cccc(Cl)c1F [Idasanutlin]
[1]; Well no.=7114
  remaining activity at 1.25 µM: 101%
[1]; Well no.=7554
  remaining activity at 1.25 µM: 92.9%
[2]; Well no.=7114
  remaining activity at 3.75 µM: 101%
[2]; Well no.=7554
  remaining activity at 3.75 µM: 93.9%

## c1ccc2c(c1)OCC(C1=NCCN1)O2 (centres unmarked) [Idazoxan hydrochloride]
[1]; Well no.=821
  remaining activity at 1.25 µM: 105%
[2]; Well no.=821
  remaining activity at 3.75 µM: 102%

## COC1=C(OC)C(=O)C(CCCCCCCCCCO)=C(C)C1=O [Idebenone]
[1]; Well no.=1616
  remaining activity at 1.25 µM: 103%
[1]; Well no.=3859
  remaining activity at 1.25 µM: 104%
[2]; Well no.=1616
  remaining activity at 3.75 µM: 99.2%
[2]; Well no.=3859
  remaining activity at 3.75 µM: 105%

## O=c1[nH]c(=O)n([C@H]2C[C@H](O)[C@@H](CO)O2)cc1I [Idoxuridine]
[1]; Well no.=2218
  remaining activity at 1.25 µM: 98.6%
[1]; Well no.=8851
  remaining activity at 1.25 µM: 105%
[2]; Well no.=2218
  remaining activity at 3.75 µM: 102%
[2]; Well no.=8851
  remaining activity at 3.75 µM: 107%

## CC(C(O)c1ccc(O)cc1)N1CCC(Cc2ccccc2)CC1 (centres unmarked) [Ifenprodil tartrate]
[1]; Well no.=867
  remaining activity at 1.25 µM: 103%
[1]; Well no.=1685
  remaining activity at 1.25 µM: 102%
[2]; Well no.=867
  remaining activity at 3.75 µM: 103%
[2]; Well no.=1685
  remaining activity at 3.75 µM: 104%

## O=P1(NCCCl)OCCCN1CCCl (centres unmarked) [Ifosfamide]
[1]; Well no.=2220
  remaining activity at 1.25 µM: 97.2%
[2]; Well no.=2220
  remaining activity at 3.75 µM: 98.6%

## CC[C@H](C)[C@H](N)C(=O)N1CCC[C@H]1C(=O)N[C@H](C(=O)O)[C@@H](C)CC [Ile-Pro-Ile]
[1]; Well no.=5849
  remaining activity at 1.25 µM: 100%
[2]; Well no.=5849
  remaining activity at 3.75 µM: 99.6%

## CNC(=O)[C@H](Cc1c[nH]c2ccccc12)NC(=O)[C@@H](CC(=O)NO)CC(C)C [Ilomastat (GM6001, Galardin)]
[1]; Well no.=9030
  remaining activity at 1.25 µM: 101%
[2]; Well no.=9030
  remaining activity at 3.75 µM: 94.4%

## COc1cc(C(C)=O)ccc1OCCCN1CCC(c2noc3cc(F)ccc23)CC1 [Iloperidone]
[1]; Well no.=7333
  remaining activity at 1.25 µM: 102%
[2]; Well no.=7333
  remaining activity at 3.75 µM: 91.9%

## Cc1ccc(NC(=O)c2ccc(CN3CCN(C)CC3)cc2)cc1Nc1nccc(-c2cccnc2)n1 [Imatinib]
[1]; Well no.=1611
  remaining activity at 1.25 µM: 102%
[1]; Well no.=2839
  remaining activity at 1.25 µM: 99.7%
[2]; Well no.=2839
  remaining activity at 3.75 µM: 102%

## O=C1CCC(c2ccc(-n3ccnc3)cc2)=NN1 [Imazodan]
[1]; Well no.=764
  remaining activity at 1.25 µM: 97.3%
[2]; Well no.=764
  remaining activity at 3.75 µM: 97.7%

## N=C(N)SCCc1c[nH]cn1 [Imetit dihydrobromide]
[1]; Well no.=779
  remaining activity at 1.25 µM: 94.3%
[2]; Well no.=779
  remaining activity at 3.75 µM: 94.6%

## Cc1nccn1CCC(C(N)=O)(c1ccccc1)c1ccccc1 [Imidafenacin]
[1]; Well no.=6377
  remaining activity at 1.25 µM: 102%
[2]; Well no.=6377
  remaining activity at 3.75 µM: 97.6%

## CCOC(=O)[C@H](CCc1ccccc1)N[C@@H](C)C(=O)N1C(=O)N(C)C[C@H]1C(=O)O [Imidapril (hydrochloride)]
[1]; Well no.=7686
  remaining activity at 1.25 µM: 99.8%
[2]; Well no.=7686
  remaining activity at 3.75 µM: 98%

## CCOC(=O)[C@H](CCc1ccccc1)N[C@@H](C)C(=O)N1C(=O)N(C)C[C@H]1C(=O)O [Imidapril hydrochloride]
[1]; Well no.=5696
  remaining activity at 1.25 µM: 91.8%
[2]; Well no.=5696
  remaining activity at 3.75 µM: 92.9%

## CC(C)Oc1ccc(C(=O)Cn2ccnc2)cc1-n1c(CN2CCN(C(=O)COc3ccc(Cl)cc3)CC2)nc2ccccc2c1=O [Imidazole ketone erastin]
[1]; Well no.=6884
  remaining activity at 1.25 µM: 95.5%
[2]; Well no.=6884
  remaining activity at 3.75 µM: 97%

## O=C(O)Cc1cnc[nH]1 [Imidazole-4-acetic acid hydrochloride]
[1]; Well no.=620
  remaining activity at 1.25 µM: 97.6%
[2]; Well no.=620
  remaining activity at 3.75 µM: 101%

## CCn1ccnc1CC1COc2ccccc2O1 (centres unmarked) [Imiloxan hydrochloride]
[1]; Well no.=1063
  remaining activity at 1.25 µM: 97.9%
[2]; Well no.=1063
  remaining activity at 3.75 µM: 97%

## C[C@@H](O)[C@H]1C(=O)N2C(C(=O)O)=C(SCCNC=N)C[C@H]12 [Imipenem]
[1]; Well no.=1935
  remaining activity at 1.25 µM: 102%
[1]; Well no.=5494
  remaining activity at 1.25 µM: 104%
[2]; Well no.=1935
  remaining activity at 3.75 µM: 103%
[2]; Well no.=5494
  remaining activity at 3.75 µM: 104%

## CN(C)CCCN1c2ccccc2CCc2ccccc21 [Imipramine hydrochloride]
[1]; Well no.=1061
  remaining activity at 1.25 µM: 100%
[2]; Well no.=1061
  remaining activity at 3.75 µM: 97.7%

## CC(C)Cn1cnc2c(N)nc3ccccc3c21 [Imiquimod]
[1]; Well no.=2222
  remaining activity at 1.25 µM: 94%
[1]; Well no.=8069
  remaining activity at 1.25 µM: 109%
[2]; Well no.=2222
  remaining activity at 3.75 µM: 94.3%
[2]; Well no.=8069
  remaining activity at 3.75 µM: 108%

## C[C@H]1CC[C@@H]2N(C1)C[C@H]1[C@@H]3C[C@H]4[C@@H](CC(=O)[C@H]5C[C@@H](O)CC[C@@]54C)[C@@H]3CC[C@H]1[C@]2(C)O [Imperialine]
[1]; Well no.=3155
  remaining activity at 1.25 µM: 93.8%
[2]; Well no.=3155
  remaining activity at 3.75 µM: 101%

## CC(Nc1nc(N2CCCC2)nc2ccccc12)c1ccccc1 (centres unmarked) [Importazole]
[1]; Well no.=5622
  remaining activity at 1.25 µM: 95.6%
[2]; Well no.=5622
  remaining activity at 3.75 µM: 96.8%
